What was measured:
Parkinson's disease = conditions: cited from earlier work
[1] = test system: unilaterally 6-OHDA-lesioned rats; test: 6-OHDA rat model: L-DOPA induced AIMs and drugs screening test; format: in vivo; conditions: for L-DOPA induced AIMs: Example II, 30 min before test
[2] = Pharmacokinetic profiling of the fixed dose combination product; format: in vivo; conditions: cynomolgus monkeys, oral; for Time of maximum plasma concentration: one buspirone (IR)/zolmitriptan (CR) 10 mg/1 mg tablet (batch 0614/2012), n=4
Source text: Four non-naïve male cynomolgus monkeys (3.5 to 7 kg; Hainan Jingang Laboratory Animal Co. Ltd.) were used to evaluate the pharmacokinetics of the fixed dose combination product of the present invention. Animals were individually housed in stainless-steel mesh cages during in-life in accordance with the National Research Council “Guide for the Care and Use of Laboratory Animals” and fed twice daily with 120 g of Certified Monkey Diet daily (Beijing Vital Keao Feed Co., Ltd. Beijing, P. R. China). At test occasion, animals were fed the day before at 3:30 to 4:00 pm and the remaining food removed after approximately 1 to 1.5 hours of feeding (at 5:00 pm). Food was withheld until 4-hour post-dosage. The study was conducted in compliance with the Animal Welfare Act, the Guide for the Care and Use of Laboratory Animals, and the Office of Laboratory Animal Welfare (OLAW).
Each monkey was dosed one buspirone hydrochloride (IR)/zolmitriptan (CR) 10 mg/1 mg combination product (batch 0614/2012) orally using tablet gun, placing one tablet beyond the root of tongue. Subsequently, the animals' throat was massaged to aid passage of the tablet down the esophagus and 5-10 mL drinking water injected into its mouth using a syringe. After administration of drinking water, the animals' jaw was checked to see if the tablet was swallowed.
Blood samples were draw from a peripheral vessel from restrained, non-sedated animals at the following time points: pre-dose, 15, 30, 60 min, 2, 4, 8, 12 and 24 h post-dose into (K2) EDTA-coated tubes. Plasma was obtained from the blood samples by centrifugation (3,000×g for 10 minutes at 2 to 8° C.) within one hour of collection and stored frozen in a freezer at −70° C. until bio-analysis.
Analytes were extracted from plasma by mixing 200 μL 0.1% formic acid (FA) in 50% acetonitrile (ACN)/methanol (MeOH) containing 100 ng/mL Labetalol as internal standard with 50 μL plasma sample, followed by centrifugation (4000 rpm for 20 min).
Subsequently, 100 μL of supernatant was removed and mixed with 150 μL 0.1% FA in 25% MeOH/Water, vortexed 10 min and centrifuged for 10 min at 4000 rpm. Chromatographic separation from other constituents of the sample was achieved by ultra-performance liquid chromatography (Acquity, Waters), followed by tandem mass spectrometry (MS/MS) detection (API 4000, AB Sciex Instruments), injecting 20 μL sample. The analytes were separated by an ACE 5 phenyl (2.1×100 mm ID) column maintained at 40° C., using a gradient of A: 10 mM ammonium acetate in water and solvent B: 0.1% FA in 95% ACN)/water (table 4).
Buspirone, zolmitriptan and labetalol were detected at parent/daughter molecular mass of 386.10/122.20, 288.10/58.20 and 329.20/161.90 m/z, and a collision energy of 41, 25 and 50 eV, respectively. Retention times were 2.3, 1.3 and 2.0 min for buspirone, zolmitriptan and labetalol, respectively. Peak areas correlated linearly (r^2>0.997, 1/x^2 weighting) with buspirone and zolmitriptan concentrations in the range 0.5-1000 ng/mL. Lower limit of quantification (LLOQ) was 0.5 ng/mL for buspirone and zolmitriptan based on a signal-to-noise ratio>10:1.
The PK analysis was performed with non-linear mixed effects modelling using Phoenix NMLE 1.2 (Pharsight Corporation). A one- or two-compartment model with first-order absorption and elimination rate was fitted to the time-concentration profiles. Furthermore, model development included modelling of the data with an absorption lag-time (Tlag). To adequately characterise a potential lag-time, the plasma concentrations<LLOQ (Lower Limit of Quantification) was fixed to ½ of LLOQ (0.25 ng/mL) for the sample just prior to the first quantifiable concentration. Best model fit was evaluated based on basic goodness-of-fit plots, parameter precision, visual predictive check and objective function value. A drop in objective function value of […] for nested models with one added parameter was considered a significant improvement in model fit.

LID = conditions: cited from earlier work
[3] = test system: unilaterally 6-OHDA-lesioned rats; conditions: zolmitriptan administered alone; WO2012/048710; cited from earlier work
[4] = Example VI, buspirone 0.25 or 0.5 mg/kg s.c., tandospirone 1 or 2 mg/kg i.p., 25 min before test
[5] = batch 0614/2012, non-linear mixed effects modelling
[6] = batch 0614/2012, non-linear mixed effects modelling, value (% CV)

## O=C1CC2(CCCC2)CC(=O)N1CCCCN1CCN(c2ncccn2)CC1 [buspirone, 8-[4-(4-pyrimidin-2-ylpiperazin-1-yl)butyl]-8-azaspiro[4.5]decane-7,9-dione]
Parkinson's disease; doses 10-60 mg/day
  Effect on Parkinson's disease or dyskinesia: did not have any effects on Parkinson's disease or dyskinesia
Parkinson's disease; higher doses (100 mg/day)
  Disability ratings: significant worsening of disability ratings
  Effect on dyskinesia: reduced dyskinesia
[1]; Example I, buspirone 0.5 mg/kg i.p. given alone
  L-DOPA-induced dyskinesia (AIMs): only partly reduced AIM
[1]; [4]
  L-DOPA-induced dyskinesia (AIMs): significantly reduced L-DOPA-induced dyskinesia
[2]; [5]
  CL/F IIV (inter-individual variability): 37%
  ka IIV (inter-individual variability): 5.4%
[2]; [6]
  tvQ/F (inter-compartmental clearance): 18 (11) L/h/kg
  tvTlag (absorption lag-time): no observable lag-time
  tvV2/F (volume of peripheral compartment): 1259 (29) L/kg
  tvV/F (volume of central compartment): 3.9 (26) L/kg
  tvka (absorption rate): 1.0 (13) h^-1
  tyCL/F (clearance): 13 (124) L/h/kg
[2]
  Time of maximum plasma concentration: around 0.5 h

## Fc1ccc(-c2cncc(CNC[C@H]3CCc4ccccc4O3)c2)cc1 [sarizotan, 1-[(2R)-3,4-dihydro-2H-chromen-2-yl]-N-([5-(4-fluorophenyl)pyridin-3-yl]methyl)methanamine]
LID; phase 2A study and open labeled study
  Effect on LID: reduced LID
LID; several large phase 2b studies
  Effect compared to placebo: no significant effects

## O=C1[C@@H]2[C@@H]3CC[C@@H](C3)[C@@H]2C(=O)N1CCCCN1CCN(c2ncccn2)CC1 [tandospirone, (1R,2R,6S,7S)-4-{4-[4-(pyrimidin-2yl)piperazin-1-yl]butyl}-4-azatricyclo[5.2.1.02,6]decane-3,5-dione]
[1]; tandospirone 1 mg/kg i.p. alone
  L-DOPA induced AIMs: partially and briefly reduce AIMs
[1]; tandospirone 2 mg/kg i.p. alone
  L-DOPA induced AIMs: partially and briefly reduce AIMs
[1]; [4]
  L-DOPA-induced dyskinesia (AIMs): significantly reduced L-DOPA-induced dyskinesia

## CN(C)CCc1c[nH]c2ccc(C[C@H]3COC(=O)N3)cc12 [zolmitriptan, (S)-4-({3-[2-(dimethylamino)ethyl]-1H-indol-5-yl}methyl)-1,3-oxazolidin-2-one]
[2]; batch 0614/2012, LLOQ 0.5 ng/mL
  Time plasma concentration is sustained above limit of quantification: 12 h
[2]; batch 0614/2012, model
  Absorption rate, slower compared to buspirone: 3 fold
[2]; [5]
  V/F IIV (inter-individual variability): 0.1%
[2]; [6]
  tvTlag (absorption lag-time): 0.44 h
  tvV/F (volume of central compartment): 16 (62) L/kg
  tvka (absorption rate): 0.32 (55) h^-1
  tyCL/F (clearance): 7.0 (11) L/h/kg
[2]; batch 0614/2012, non-linear mixed effects modelling, value (% CV), listed as Zolmitriptan
  tvTlag (absorption lag-time): 0.44 (3.8) h
[2]
  Time of maximum plasma concentration: 4 h
[3]
  Inhibition of LID in an animal model for LID: generally fails to inhibit LID
